# Target: wild-type human cardiac sodium channel, hNav1.5 (Homo sapiens, UniProt Q14524)
# Experiment: Late INa screening assay (automated whole cell patch clamp, PatchXpress)
# Assay type: cell-based
# Conditions: HEK293 cells expressing hNav1.5, late INa generated with 10 μM Tefluthrin (or 50 nM ATX II); for inhibition at 1 µM: compound at 1 μM, read-out: LateINa_1 uM (percent block of late INa); for inhibition at 10 µM: compound at 10 μM, read-out: LateINa_10 uM (percent block of late INa)
# How it was run: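 Late sodium current through wild-type human hNav1.5 stably expressed in HEK293 cells (no beta subunits) was recorded by automated whole-cell patch clamp on a PatchXpress 7000A at 24-27° C. Late INa was induced with 10 μM Tefluthrin or 50 nM ATX II. Cells were stepped from −120 mV to −20 mV for 250 ms at 0.1 Hz, and percent block was normalized to current in Na-free extracellular solution.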
# wild-type human cardiac sodium channel, hNav1.5, sequence (Q14524 whole entry): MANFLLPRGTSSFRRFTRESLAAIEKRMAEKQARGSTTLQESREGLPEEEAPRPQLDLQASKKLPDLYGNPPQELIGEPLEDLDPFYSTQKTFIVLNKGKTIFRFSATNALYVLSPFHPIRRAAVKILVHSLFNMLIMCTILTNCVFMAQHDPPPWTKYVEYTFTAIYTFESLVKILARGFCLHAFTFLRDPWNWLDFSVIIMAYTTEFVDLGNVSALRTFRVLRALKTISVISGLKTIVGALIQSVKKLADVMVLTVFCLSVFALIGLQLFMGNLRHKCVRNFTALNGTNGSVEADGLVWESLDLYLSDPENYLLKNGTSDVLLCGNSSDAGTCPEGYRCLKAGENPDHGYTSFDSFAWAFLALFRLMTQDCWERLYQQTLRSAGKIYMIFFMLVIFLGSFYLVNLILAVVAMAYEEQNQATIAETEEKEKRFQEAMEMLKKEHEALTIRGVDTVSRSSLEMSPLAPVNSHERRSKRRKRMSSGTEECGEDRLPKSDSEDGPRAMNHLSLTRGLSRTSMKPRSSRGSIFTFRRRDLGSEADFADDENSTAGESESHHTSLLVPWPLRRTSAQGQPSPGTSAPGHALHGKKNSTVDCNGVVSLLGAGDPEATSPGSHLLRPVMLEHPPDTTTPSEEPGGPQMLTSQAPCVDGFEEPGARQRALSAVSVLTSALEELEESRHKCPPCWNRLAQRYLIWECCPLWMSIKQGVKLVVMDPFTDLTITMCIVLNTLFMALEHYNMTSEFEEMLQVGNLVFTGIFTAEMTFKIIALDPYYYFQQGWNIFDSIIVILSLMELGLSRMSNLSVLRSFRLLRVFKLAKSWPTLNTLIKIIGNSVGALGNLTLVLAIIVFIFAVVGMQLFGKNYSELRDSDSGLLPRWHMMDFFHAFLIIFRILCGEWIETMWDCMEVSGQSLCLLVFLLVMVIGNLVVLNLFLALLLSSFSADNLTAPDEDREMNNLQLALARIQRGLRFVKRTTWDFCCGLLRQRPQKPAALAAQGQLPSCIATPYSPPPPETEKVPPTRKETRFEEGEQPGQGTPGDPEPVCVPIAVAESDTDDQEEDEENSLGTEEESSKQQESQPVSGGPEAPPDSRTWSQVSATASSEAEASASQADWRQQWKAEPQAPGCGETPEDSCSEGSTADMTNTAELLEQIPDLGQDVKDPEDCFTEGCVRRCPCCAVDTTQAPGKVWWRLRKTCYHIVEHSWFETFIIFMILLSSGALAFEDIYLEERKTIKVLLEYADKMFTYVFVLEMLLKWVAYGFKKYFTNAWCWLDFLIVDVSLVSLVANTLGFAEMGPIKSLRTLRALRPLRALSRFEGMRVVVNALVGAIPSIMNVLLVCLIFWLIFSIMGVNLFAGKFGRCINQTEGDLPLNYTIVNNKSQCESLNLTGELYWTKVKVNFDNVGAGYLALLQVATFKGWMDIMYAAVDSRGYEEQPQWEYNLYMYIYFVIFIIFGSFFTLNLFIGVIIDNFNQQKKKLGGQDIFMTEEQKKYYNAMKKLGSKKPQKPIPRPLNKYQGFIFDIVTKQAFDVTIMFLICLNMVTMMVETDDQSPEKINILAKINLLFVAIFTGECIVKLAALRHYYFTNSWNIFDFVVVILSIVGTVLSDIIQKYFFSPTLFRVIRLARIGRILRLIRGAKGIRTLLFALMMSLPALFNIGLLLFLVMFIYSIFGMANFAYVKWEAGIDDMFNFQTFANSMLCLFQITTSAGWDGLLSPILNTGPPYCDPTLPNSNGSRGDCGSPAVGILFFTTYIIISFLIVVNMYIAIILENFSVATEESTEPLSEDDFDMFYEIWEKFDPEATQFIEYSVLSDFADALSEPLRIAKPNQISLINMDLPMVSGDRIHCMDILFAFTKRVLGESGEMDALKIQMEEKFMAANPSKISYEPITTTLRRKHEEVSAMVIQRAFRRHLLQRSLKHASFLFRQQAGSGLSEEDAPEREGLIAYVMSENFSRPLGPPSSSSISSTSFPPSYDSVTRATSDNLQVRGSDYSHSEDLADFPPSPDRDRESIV
SMILES,inhibition at 1 µM,inhibition at 10 µM
"COCC(F)(F)c1nnc2ccc(-c3ccc(OC(F)(F)F)cc3)cn12 [BHN-74, 3-(1,1-difluoro-2-methoxyethyl)-6-[4-(trifluoromethoxy)phenyl][1,2,4]triazolo[4,3-a]pyridine]",46.9%,67%
"OC1(COC(F)(F)c2nnc3ccc(-c4ccc(OC(F)(F)F)cc4)cn23)CCC1 [BHN-248, 1-[(difluoro{6-[4-(trifluoromethoxy)phenyl][1,2,4]triazolo[4,3-a]pyridin-3-yl}methoxy)methyl]cyclobutanol]",50.2%,
"FC(F)(F)Oc1ccc(-c2ccc3nnc(C(F)(F)OCc4ncccn4)n3c2)cc1 [BHN-245, 3-[difluoro(pyrimidin-2-ylmethoxy)methyl]-6-[4-(trifluoromethoxy)phenyl][1,2,4]triazolo[4,3-a]pyridine]",38.8%,
"OCc1nc(C(F)(F)F)n2cc(-c3ccc(OC(F)(F)F)cc3)ccc12 [BHN-125, {6-[4-(trifluoromethoxy)phenyl]-3-(trifluoromethyl)imidazo[1,5-a]pyridin-1-yl}methanol]",33.9%,
"FC(F)(F)Oc1ccc(-c2ccc3nnc(C(F)(F)F)n3c2)c2ncccc12 [BHN-161, 5-(trifluoromethoxy)-8-[3-(trifluoromethyl)[1,2,4]triazolo[4,3-a]pyridin-6-yl]quinoline]",49.5%,
"Cc1nc(COC(F)(F)c2nnc3ccc(-c4ccc(OC(F)(F)F)cc4)cn23)no1 [BHN-147, 3-{difluoro[(5-methyl-1,2,4-oxadiazol-3-yl)methoxy]methyl}-6-[4-(trifluoromethoxy)phenyl][1,2,4]triazolo[4,3-a]pyridine]",29.1%,
"N#CC1(c2ccc(-c3ccc4nnc(C(F)(F)F)n4c3)cc2)CC1 [BHN-195, 1-{4-[3-(trifluoromethyl)[1,2,4]triazolo[4,3-a]pyridin-6-yl]phenyl}cyclopropanecarbonitrile]",47.3%,
"FC(F)(F)Oc1ccc(-c2ccc3nnc(C(F)(F)OCc4ccccc4-c4cccnc4)n3c2)cc1 [BHN-327, 3-(difluoro{[2-(pyridin-3-yl)benzyl]oxy}methyl)-6-[4-(trifluoromethoxy)phenyl][1,2,4]triazolo[4,3-a]pyridine]",54.2%,
"FC(F)(F)Oc1ccc(COCc2nnc3ccc(-c4ccc(OC(F)(F)F)cc4)cn23)cc1 [BHN-242, 3-({[4-(trifluoromethoxy)benzyl]oxy}methyl)-6-[4-(trifluoromethoxy)phenyl][1,2,4]triazolo[4,3-a]pyridine]",72.2%,
"FC(F)(F)Oc1ccc(-c2ccc3nnc(C(F)(F)OCc4ccnc(N5CCCCC5)c4)n3c2)cc1 [BHN-320, 3-(difluoro{[2-(piperidin-1-yl)pyridin-4-yl]methoxy}methyl)-6-[4-(trifluoromethoxy)phenyl][1,2,4]triazolo[4,3-a]pyridine]",76.3%,
"CCOC(=O)c1cccc(-c2nnc3ccc(-c4ccc(OC(F)(F)F)cc4)cn23)c1 [BHN-87, ethyl 3-{6-[4-(trifluoromethoxy)phenyl][1,2,4]triazolo[4,3-a]pyridin-3-yl}benzoate]",38.9%,72.2%
"COC(C)(C)c1ccc(-c2ccc3nnc(C(F)(F)F)n3c2)cc1 [BHN-220, 6-[4-(2-methoxypropan-2-yl)phenyl]-3-(trifluoromethyl)[1,2,4]triazolo[4,3-a]pyridine]",58.5%,
"COCc1c(-c2ccc(OC(F)(F)F)cc2)ccc2nnc(C(F)(F)F)n12 [BHN-277, 5-(methoxymethyl)-6-[4-(trifluoromethoxy)phenyl]-3-(trifluoromethyl)[1,2,4]triazolo[4,3-a]pyridine]",38%,
"Clc1ccc(Oc2ccc(-c3ccc4nnnn4c3)cc2)cc1 [BHN-218, 6-[4-(4-chlorophenoxy)phenyl]tetrazolo[1,5-a]pyridine]",36%,
"FC(F)(F)Oc1ccc(-c2ccc3nnc(C(F)(F)F)n3c2)cc1CN1CCOCC1 [BHN-72, 6-[3-(morpholin-4-ylmethyl)-4-(trifluoromethoxy)phenyl]-3-(trifluoromethyl)[1,2,4]triazolo[4,3-a]pyridine]",,26.7%
"COCC(F)(F)c1nnc2ccc(-c3ccc(OCC(F)(F)F)nc3)cn12 [BHN-144, 3-(1,1-difluoro-2-methoxyethyl)-6-[6-(2,2,2-trifluoroethoxy)pyridin-3-yl][1,2,4]triazolo[4,3-a]pyridine]",36.4%,
"FC(F)(F)Oc1ccc(-c2ccc3nnc(C(F)(F)COCc4ccccn4)n3c2)cc1 [BHN-172, 3-[1,1-difluoro-2-(pyridin-2-ylmethoxy)ethyl]-6-[4-(trifluoromethoxy)phenyl][1,2,4]triazolo[4,3-a]pyridine]",30.7%,
"CS(=O)(=O)Nc1ccccc1-c1nnc2ccc(-c3ccc(OC(F)(F)F)cc3)cn12 [BHN-93, N-(2-{6-[4-(trifluoromethoxy)phenyl][1,2,4]triazolo[4,3-a]pyridin-3-yl}phenyl)methanesulfonamide]",,21%

SMILES,inhibition at 1 µM,inhibition at 10 µM
"N#CCOc1cc(OC(F)(F)F)ccc1-c1ccc2nnc(C(F)(F)F)n2c1 [BHN-181, {5-(trifluoromethoxy)-2-[3-(trifluoromethyl)[1,2,4]triazolo[4,3-a]pyridin-6-yl]phenoxy}acetonitrile]",18.7%,
"FC(F)(F)c1nnc2ccc(-c3ccc(Nc4ccc(Cl)cc4)cc3)cn12 [BHN-283, 4-chloro-N-{4-[3-(trifluoromethyl)[1,2,4]triazolo[4,3-a]pyridin-6-yl]phenyl}aniline]",27.2%,
"N#CCOCC(F)(F)c1nnc2ccc(-c3ccc(OC(F)(F)F)cc3)cn12 [BHN-156, (2,2-difluoro-2-{6-[4-(trifluoromethoxy)phenyl][1,2,4]triazolo[4,3-a]pyridin-3-yl}ethoxy)acetonitrile]",22.3%,
"COCC(F)(F)c1nnc2ccc(-c3cc(F)c(Oc4ccccc4)c(F)c3)cn12 [BHN-233, 3-(1,1-difluoro-2-methoxyethyl)-6-(3,5-difluoro-4-phenoxyphenyl)[1,2,4]triazolo[4,3-a]pyridine]",31.4%,
"c1ccc(Oc2ccc(-c3ccc4nnc(C5CC5)n4n3)cc2)cc1 [BHN-39, 3-cyclopropyl-6-(4-phenoxyphenyl)[1,2,4]triazolo[4,3-b]pyridazine]",44.4%,74.3%
"FC(F)(F)Oc1ccc(-c2ccc3nnc(C#CC4CC4)n3c2)cc1 [BHN-171, 3-(cyclopropylethynyl)-6-[4-(trifluoromethoxy)phenyl][1,2,4]triazolo[4,3-a]pyridine]",49.3%,
"CC(O)C(F)(F)c1nnc2ccc(-c3ccc(OC(F)(F)F)cc3)cn12 (stereo not drawn) [BHN-165, 1,1-difluoro-1-{6-[4-(trifluoromethoxy)phenyl][1,2,4]triazolo[4,3-a]pyridin-3-yl}propan-2-ol]",28.1%,
"CC(C)(C)c1nnc2ccc(-c3ccc(OCC(F)(F)F)cc3)nn12 [BHN-36, 3-tert-butyl-6-[4-(2,2,2-trifluoroethoxy)phenyl][1,2,4]triazolo[4,3-b]pyridazine]",,64.5%
"COCCOC(F)(F)c1nnc2ccc(-c3ccc(OC(F)(F)F)cc3)cn12 [BHN-141, 3-[difluoro(2-methoxyethoxy)methyl]-6-[4-(trifluoromethoxy)phenyl][1,2,4]triazolo[4,3-a]pyridine]",32.5%,
"COc1cc(OC(F)(F)F)ccc1-c1ccc2nnc(C(F)(F)F)n2c1 [BHN-152, 6-[2-methoxy-4-(trifluoromethoxy)phenyl]-3-(trifluoromethyl)[1,2,4]triazolo[4,3-a]pyridine]",71.8%,
"FC(F)(F)Oc1ccc(-c2ccc3nnc(C(F)(F)OCc4cc(-c5ccccc5Cl)on4)n3c2)cc1 [BHN-326, 3-[{[5-(2-chlorophenyl)-1,2-oxazol-3-yl]methoxy}(difluoro)methyl]-6-[4-(trifluoromethoxy)phenyl][1,2,4]triazolo[4,3-a]pyridine]",52.4%,
"O=C(O)Cc1nnc2ccc(-c3ccc(OC(F)(F)F)cc3)cn12 [BHN-19, {6-[4-(trifluoromethoxy)phenyl][1,2,4]triazolo[4,3-a]pyridin-3-yl}acetic acid]",,35.4%
"N#CC1(c2ccc(-c3ccc4nnc(C(F)(F)F)n4c3)cc2)CCOCC1 [BHN-254, 4-{4-[3-(trifluoromethyl)[1,2,4]triazolo[4,3-a]pyridin-6-yl]phenyl}tetrahydro-2H-pyran-4-carbonitrile]",24.6%,
"Cc1nnc2c(N)cc(-c3ccc(OC(F)(F)F)cc3)cn12 [BHN-69, 3-methyl-6-[4-(trifluoromethoxy)phenyl][1,2,4]triazolo[4,3-a]pyridin-8-amine]",,32.1%
"COCCOc1cc(OC(F)(F)F)ccc1-c1ccc2nnc(C(F)(F)F)n2c1 [BHN-178, 6-[2-(2-methoxyethoxy)-4-(trifluoromethoxy)phenyl]-3-(trifluoromethyl)[1,2,4]triazolo[4,3-a]pyridine]",28.5%,
"Fc1cc(-c2ccc3nnc(C(F)(F)F)n3n2)ccc1OC(F)(F)F [BHN-209, 6-[3-fluoro-4-(trifluoromethoxy)phenyl]-3-(trifluoromethyl)[1,2,4]triazolo[4,3-b]pyridazine]",61%,
"N#CCOCc1c(-c2ccc(OC(F)(F)F)cc2)ccc2nnc(C(F)(F)F)n12 [BHN-279, ({6-[4-(trifluoromethoxy)phenyl]-3-(trifluoromethyl)[1,2,4]triazolo[4,3-a]pyridin-5-yl}methoxy)acetonitrile]",19.1%,
"OCc1nnc2ccc(-c3ccc(OC(F)(F)F)cc3)cn12 [BHN-130, {6-[4-(trifluoromethoxy)phenyl][1,2,4]triazolo[4,3-a]pyridin-3-yl}methanol]",21.9%,

# Source: US8952034B2, “Fused heterocyclic compounds as ion channel modulators” (Gilead Sciences, Inc., priority 2009, dated 2015)
